Experimental findings from US20180177890A1, “LIGAND-CYTOTOXIC DRUG CONJUGATE, PREPARATION METHOD THEREOF, AND USE THEREOF” (priority 2015, published 2018) are described below.

Square brackets hold non-standard residues; d marks the D form. Peptide text beside a SMILES is read from it. Dolaproine = CO[C@@H]([C@@H]1CCCN1)[C@@H](C)C(=O)O; Phe(2,4-Cl2) = N[C@@H](Cc1ccc(Cl)cc1Cl)C(=O)O; Dil = CC[C@H](C)[C@H](NC)[C@@H](CC(=O)O)OC; Phe(2-Me) = Cc1ccccc1C[C@H](N)C(=O)O; 2Thi = N[C@@H](Cc1cccs1)C(=O)O; NMeV = CN[C@H](C(=O)O)C(C)C

The subject of test [1] is HepG2 tumor cells. Description: In vitro tumor cell proliferation inhibition test (CCK-8), HepG2. The test is classed as cell-based. To be noted: Homo sapiens, HepG2, 76 hours incubation. As to the method: (§1) The objective of this experiment is to test the in vitro inhibition effect of the formula (D) according to the present invention on the proliferation of HepG2 tumor cells (human hepatocellular carcinoma cells, Chinese Academy of Sciences cell bank, No. #TCHu 72) and A549 tumor cells (human lung adenocarcinoma, Chinese Academy of Sciences cell bank, No. #TCHu150). The cells were treated with different concentrations of the compound in vitro. After 76 hours incubation, the cell proliferation was detected by CCK-8 reagent (Cell Counting Kit-8, Dojindo, No. CK04), and the activity of the compound in vitro was evaluated according to the IC50 value.
(§2) The following is an example of a method for in vitro proliferation inhibition test of HepG2 cells for the purpose of exemplifying the test of the compounds according to the present invention for the proliferation inhibitory activity on tumor cells in vitro. This method is also applicable to, but not limited to, the in vitro proliferation inhibition tests on other tumor cells.
HepG2 cells in logarithmic growth phase were washed with PBS (phosphate buffer, ThermoFisher) once, and added with 2-3 ml trypsin (0.25% trypsin-EDTA (1×), Gibico, Life Technologies) to digest for 2-3 min. Then, 10-15 ml of cell culture medium (DMEM/F12 medium, Invitrogen; 10% (v/v)) was added after the cells were completely digested. The digested HepG2 cells were eluted, and centrifuged at 1000 rpm for 3 min. The supernatant was discarded, and then 10-20 ml of cell culture medium were added to resuspend the cells to prepare a single cell suspension.
The HepG2 single cell suspension was mixed and the cell density was adjusted to 6×10^4 cells/ml with cell culture medium. The density-adjusted cell suspension was mixed uniformly and added to a 96-well cell culture plate at 100 μl/well. The plates were incubated in a 5% CO2 incubator at 37° C. for 18-20 hours.
(§3) The compound was dissolved with DMSO (dimethylsulfoxide, Shanghai Titan Technology Co., Ltd.) to prepare a storage solution having an initial concentration of 10 mM.
(§4) 10 μl of 10 mM compound was added to the wells of the first column of a U-shaped bottom 96-well plate (sample plate 1), and 90 μl of DMSO was added to each compound sample well of the first column, i.e., the stock solution was diluted 10 times as the starting point. Then, 3-fold gradient dilutions were performed, with each compound concentration […]. The diluent was DMSO solution. 60 μl of 100% DMSO was added to 12th column and 20 μl of 1 mM positive drug control was added to 11th column.
(§5) In a new U-shaped bottom 96-well plate (sample plate 2), each sample from the sample plate 1 was diluted 20 times with the complete medium. Then, in another new U-shaped bottom 96-well plate (sample plate 3), each well sample from the sample plate 2 was subjected to a final 10-fold dilution.
(§6) After the cell pre-culture was completed, the 96-well cell culture plate was removed and the supernatant was discarded. Each sample dilution in the 96-well sample plate 3 was successively added to a 96-well cell culture plate at 100 μl/well. Each compound sample was tested in duplicate at each concentration. […] After completion of the loading operation, the 96-well cell culture plate was incubated at 37° C. for about 76 hours in a 5% CO2 incubator.
(§7) The 96-well cell culture plate was taken and CCK-8 was added to each well at […]. The cell culture plate was gently pat and mixed for more than 10 times and incubated at 37° C. for 2 hours in a 5% CO2 incubator.
(§8) The 96-well cell culture plate was taken and placed in a microplate reader (PerkinElmer, VICTOR 3) and the absorbance at 450 nm was measured using the microplate reader.
(§9) Data was analyzed with Microsoft Excel and Graphpad Prism 5.

In test [2] the test system is A549 tumor cells. Description: In vitro tumor cell proliferation inhibition test (CCK-8), A549. Type of test: cell-based. The following applies: Homo sapiens, A549, 76 hours incubation. As to the method: as §1, §2, §3, §4, §5, §6, §7, §8
In accordance with the above procedure, the inhibition activity of the compound according to the present invention on the proliferation of A549 tumor cells in vitro was tested. The cell culture medium was also DMEM/F12.
as §9

The test system of test [3] is NCI-N87 cells (HER2 overexpressing human gastric cancer cells). Description: Tumor inhibition rate test of NCI-N87 transplanted tumor in nude mice. The test is classed as in vivo. To be noted: 60 mg/kg (first dose doubling), IV. The source says:
To evaluate and compare the effect of antibody-cytotoxin conjugates according to the present invention on transplanted tumors of NCI-N87 cells (HER2 overexpressing human gastric cancer cells, ATCC, CRL-5822) in nude mice. […] Preparation method: all prepared with physiological saline. […] Feeding environment: SPF level. […] T/C (%)=(T−T0)/(C−C0)×100%, wherein T and C represent the tumor volume at the end of the experiment; T0 and C0 represent the tumor volume at the beginning of the experiment. […] The number of mice at the beginning of the experiment was as follows: Control group n=12, Treatment group n=6.

For `CC[C@H](C)[C@@H]([C@@H](CC(=O)N1CCC[C@H]1[C@H](OC)[C@@H](C)C(=O)N[C@@H](Cc1ccc(Cl)cc1Cl)C(=O)O)OC)N(C)C(=O)[C@@H](NC(=O)[C@@H](NC)C(C)C)C(C)C` [Compound 33, (S)-3-(2,4-dichlorophenyl)-2-((2R,3R)-3-((S)-1-((3R,4S,5S)-4-((S)-N,3-dimethyl-2-((S)-3-methyl-2-(methylamino)butanamido)butanamido)-3-methoxy-5-methylheptanoyl)pyrrolidin-2-yl)-3-methoxy-2-methylpropanamido)propanoic acid] (H-[NMeV]V[Dil][Dolaproine][Phe(2,4-Cl2)]-OH), the values for the IC50 in test [1] and in test [2] were 4.66 nM and 5 nM, respectively.

Take `CC[C@H](C)[C@@H]([C@@H](CC(=O)N1CCC[C@H]1[C@H](OC)[C@@H](C)C(=O)N[C@@H](Cc1ccccc1C)C(=O)O)OC)N(C)C(=O)[C@@H](NC(=O)[C@@H](NC)C(C)C)C(C)C` [Compound 34, (S)-2-((2R,3R)-3-((S)-1-((3R,4S,5S)-4-((S)—N,3-dimethyl-2-((S)-3-methyl-2-(methylamino)butanamido)butanamido)-3-methoxy-5-methylheptanoyl)pyrrolidin-2-yl)-3-methoxy-2-methylpropanamido)-3-(o-tolyl)propanoic acid] (H-[NMeV]V[Dil][Dolaproine][Phe(2-Me)]-OH): the values for the IC50 in test [1] and in test [2] were 18.3 nM and 32.3 nM, respectively.

`CC[C@H](C)[C@@H]([C@@H](CC(=O)N1CCC[C@H]1[C@H](OC)[C@@H](C)C(=O)N[C@@H](Cc1cccs1)C(=O)O)OC)N(C)C(=O)[C@@H](NC(=O)[C@@H](NC)C(C)C)C(C)C` [Compound 35, (S)-2-((2R,3R)-3-((S)-1-((3R,4S,5S)-4-((S)—N,3-dimethyl-2-((S)-3-methyl-2-(methylamino)butanamido)butanamido)-3-methoxy-5-methylheptanoyl)pyrrolidin-2-yl)-3-methoxy-2-methylpropanamido)-3-(thiophen-2-yl)propanoic acid] (H-[NMeV]V[Dil][Dolaproine][2Thi]-OH): the concentration for half-maximal inhibition (IC50) in test [1] is 30.6 nM; in test [2] it was 18 nM.

Pertuzumab: the “Mean tumor volume (mm^3) D0” value in test [3] (D0, 7, D0 = time of first administration) was determined as 115.5 mm^3. In addition, in test [3] (D0, 7, D21), the “% T/C D21” value came to 42%, the “% tumor inhibition rate D21” value was 58% and the “Mean tumor volume (mm^3) D21” value is 380.1 mm^3.

A word on the IC50: it is the concentration needed to halve the response being measured. Low values mean greater potency, high ones weaker potency.
